Laboratory results: patent US8952024B2, “Herbicidal pyrimidone derivatives” (E I du Pont de Nemours and Company, priority 2009, dated 2015)

Tests used:
Type in all cases: in vivo
[1] = tested on: bermudagrass (Cynodon dactylon); test: Test B pre-/postemergence plant response; conditions: for Bermudagrass plant response rating (0 to 100 scale): 0 is no effect
Procedure, shortened: (§1)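 Seeds sown in loam–sand blend were treated preemergence, and plants at 2–18 cm (1- to 4-leaf stage) in peat-based medium were treated postemergence; compounds were formulated in non-phytotoxic solvent with surfactant. After 13–15 days in greenhouse, response was visually rated against controls, 0 (no effect) to 100 (complete control).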

[2] = tested on: cocklebur (Xanthium strumarium); test: Test B pre-/postemergence plant response
Procedure, shortened: as §1

[3] = tested on: goosegrass (Eleusine indica); test: Test B pre-/postemergence plant response
Procedure, shortened: as §1

[4] = tested on: green foxtail (Setaria viridis); test: Test B pre-/postemergence plant response
Procedure, shortened: as §1

[5] = tested on: lambsquarters (Chenopodium album); test: Test B pre-/postemergence plant response
Procedure, shortened: as §1

[6] = tested on: large crabgrass (Digitaria sanguinalis); test: Test B pre-/postemergence plant response
Procedure, shortened: as §1

[7] = tested on: morningglory (Ipomoea coccinea); test: Test B pre-/postemergence plant response
Procedure, shortened: as §1

[8] = tested on: wheat (Triticum aestivum); test: Test B pre-/postemergence plant response
Procedure, shortened: as §1

wild oat (Avena fatua) = test: Test B pre-/postemergence plant response
Procedure, shortened: as §1

[9] = tested on: yellow nutsedge (Cyperus esculentus); test: Test B pre-/postemergence plant response
Procedure, shortened: as §1

[10] = tested on: barnyardgrass (Echinochloa crus-galli); test: Test B flooded paddy test; conditions: for Plant response rating, Barnyardgrass: Flood (flooded paddy test), 13 to 15 days; for Barnyardgrass plant response rating: Flood, scale 0 to 100 (0 no effect, 100 complete control); for Plant response rating, Flood, Barnyardgrass: 250 g ai/ha, flooded paddy test, visual rating on 0 to 100 scale (0 no effect, 100 complete control) after 13 to 15 days
Procedure, shortened: (§2)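 Flooded-pot test: water raised to 3 cm above soil when treating, compound put in the water, level unchanged thereafter. Plants were at 2 leaves. Readout after 13 to 15 days, visual, relative to controls; 0 signifies no effect and 100 complete control.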

[11] = tested on: umbrella sedge (Cyperus difformis); test: Test B flooded paddy test; conditions: for Plant response rating, Sedge, Umbrella: Flood (flooded paddy test), 13 to 15 days; for Sedge, Umbrella plant response rating: Flood, scale 0 to 100 (0 no effect, 100 complete control); for Plant response rating, Flood, Sedge, Umbrella: 250 g ai/ha, flooded paddy test, visual rating on 0 to 100 scale (0 no effect, 100 complete control) after 13 to 15 days
Procedure, shortened: as §2

[12] = 62 g ai/ha, postemergence, 100 is complete control, 13 to 15 days
[13] = Postemergence, 31 g ai/ha, 0 to 100 scale (0 no effect, 100 complete control)
[14] = Postemergence, 125 g ai/ha, scale 0 to 100 (0 no effect, 100 complete control)
[15] = Postemergence, 250 g ai/ha, scale 0 to 100 (0 no effect, 100 complete control), 13 to 15 days
[16] = 125 g ai/ha, scale 0 to 100, 0 is no effect, 100 is complete control
[17] = Postemergence, 31 g ai/ha, scale 0 to 100 (0 no effect, 100 complete control)
[18] = Postemergence, 62 g ai/ha, scale 0 (no effect) to 100 (complete control), 13 to 15 days
[19] = Postemergence, 250 g ai/ha, scale 0 to 100
[20] = Postemergence, 125 g ai/ha, visual rating after 13 to 15 days, scale 0 (no effect) to 100 (complete control)
[21] = 31 g ai/ha, scale of 0 to 100 where 0 is no effect and 100 is complete control
[22] = 62 g ai/ha, scale 0 to 100, 0 is no effect, 100 is complete control
[23] = 31 g ai/ha, postemergence, scale 0 to 100, 0 is no effect, 100 is complete control
[24] = Postemergence, 250 g ai/ha, scale 0 to 100 (0 no effect, 100 complete control)
[25] = 62 g ai/ha, postemergence, 0 is no effect, 100 is complete control, 13 to 15 days
[26] = 62 g ai/ha, scale of 0 to 100 where 0 is no effect and 100 is complete control

## Cc1ccc(F)cc1-n1c(-c2cccc(Cl)c2)ncc(C(=O)C2=C(O)CCCC2=O)c1=O [Compound 157]
[1]; [12]
  Bermudagrass plant response rating (0 to 100 scale): 90
[1]; [13]
  Plant response rating, Bermudagrass: 75
[1]; [14]
  Plant response rating, Bermudagrass: 100
[1]; [15]
  Plant response rating, Bermudagrass: 100
[2]; [13]
  Plant response rating, Cocklebur: 100
[2]; [14]
  Plant response rating, Cocklebur: 100
[2]; [15]
  Plant response rating, Cocklebur: 100
[3]; [13]
  Plant response rating, Goosegrass: 85
[3]; [14]
  Plant response rating, Goosegrass: 98
[3]; [15]
  Plant response rating, Goosegrass: 100
[4]; [13]
  Plant response rating, Foxtail, Green: 70
[4]; [14]
  Plant response rating, Foxtail, Green: 85
[4]; [15]
  Plant response rating, Foxtail, Green: 95
[5]; [13]
  Plant response rating, Lambsquarters: 98
[5]; [14]
  Plant response rating, Lambsquarters: 100
[5]; [15]
  Plant response rating, Lambsquarters: 100
[6]; [13]
  Plant response rating, Crabgrass, Large: 80
[6]; [14]
  Plant response rating, Crabgrass, Large: 98
[6]; [15]
  Plant response rating, Crabgrass, Large: 100
[7]; [13]
  Plant response rating, Morningglory: 20
[7]; [14]
  Plant response rating, Morningglory: 95
[7]; [15]
  Plant response rating, Morningglory: 100
[8]; [13]
  Plant response rating, Wheat: 0
[8]; [14]
  Plant response rating, Wheat: 20
[8]; [15]
  Plant response rating, Wheat: 30
Wild oat (Avena fatua); [13]
  Plant response rating, Oat, Wild: 30
Wild oat (Avena fatua); [14]
  Plant response rating, Oat, Wild: 60
Wild oat (Avena fatua); [15]
  Plant response rating, Oat, Wild: 70
[9]; [13]
  Plant response rating, Nutsedge, Yellow: 30
[9]; [14]
  Plant response rating, Nutsedge, Yellow: 40
[9]; [15]
  Plant response rating, Nutsedge, Yellow: 45
[10]; [16]
  Plant response rating, Barnyardgrass: 0
[10]; 31 g ai/ha
  Barnyardgrass plant response rating: 0
[11]; [16]
  Plant response rating, Sedge, Umbrella: 75
[11]; 31 g ai/ha
  Sedge, Umbrella plant response rating: 40

## Cc1ccc(-n2c(-c3ccccc3)ncc(C(=O)C3=C(O)CCCC3=O)c2=O)cc1 [Compound 8]
[1]; [17]
  Plant response rating, Bermudagrass: 60
[1]; [18]
  Plant response rating, Bermudagrass: 85
[1]; Postemergence, 125 g ai/ha, scale 0 to 100 (0 no effect, 100 complete control), 13 to 15 days
  Plant response rating, Bermudagrass: 95
[1]; [19]
  Bermudagrass plant response rating: 100
[2]; [17]
  Plant response rating, Cocklebur: 100
[2]; [18]
  Plant response rating, Cocklebur: 100
[2]; [20]
  Plant response rating, Cocklebur: 100
[2]; [19]
  Cocklebur plant response rating: 100
[3]; [17]
  Plant response rating, Goosegrass: 80
[3]; [18]
  Plant response rating, Goosegrass: 85
[3]; [20]
  Plant response rating, Goosegrass: 95
[3]; [19]
  Goosegrass plant response rating: 100
[4]; [17]
  Plant response rating, Foxtail, Green: 40
[4]; [18]
  Plant response rating, Foxtail, Green: 70
[4]; [20]
  Plant response rating, Foxtail, Green: 85
[4]; [19]
  Foxtail, Green plant response rating: 95
[5]; [17]
  Plant response rating, Lambsquarters: 95
[5]; [18]
  Plant response rating, Lambsquarters: 100
[5]; [20]
  Plant response rating, Lambsquarters: 100
[5]; [19]
  Lambsquarters plant response rating: 100
[6]; [17]
  Plant response rating, Crabgrass, Large: 70
[6]; [18]
  Plant response rating, Crabgrass, Large: 85
[6]; [20]
  Plant response rating, Crabgrass, Large: 90
[6]; [19]
  Crabgrass, Large plant response rating: 100
[7]; [17]
  Plant response rating, Morningglory: 75
[7]; [18]
  Plant response rating, Morningglory: 90
[7]; [20]
  Plant response rating, Morningglory: 100
[7]; [19]
  Morningglory plant response rating: 100
[8]; [17]
  Plant response rating, Wheat: 25
[8]; [18]
  Plant response rating, Wheat: 30
[8]; [20]
  Plant response rating, Wheat: 35
[8]; [19]
  Wheat plant response rating: 35
Wild oat (Avena fatua); [17]
  Plant response rating, Oat, Wild: 10
Wild oat (Avena fatua); [18]
  Plant response rating, Oat, Wild: 15
Wild oat (Avena fatua); [20]
  Plant response rating, Oat, Wild: 35
Wild oat (Avena fatua); [19]
  Oat, Wild plant response rating: 35
[9]; [17]
  Plant response rating, Nutsedge, Yellow: 65
[9]; [18]
  Plant response rating, Nutsedge, Yellow: 70
[9]; [20]
  Plant response rating, Nutsedge, Yellow: 80
[9]; [19]
  Nutsedge, Yellow plant response rating: 85
[10]
  Plant response rating, Flood, Barnyardgrass: 45
[10]; [21]
  Plant response rating, Barnyardgrass: 0
[10]; [22]
  Plant response rating, Barnyardgrass: 0
[10]; [16]
  Plant response rating, Barnyardgrass: 20
[11]
  Plant response rating, Flood, Sedge, Umbrella: 95
[11]; [21]
  Plant response rating, Sedge, Umbrella: 30
[11]; [22]
  Plant response rating, Sedge, Umbrella: 65
[11]; [16]
  Plant response rating, Sedge, Umbrella: 85

## CCCCn1c(-c2ccccc2)ncc(C(=O)C2=C(O)CCCC2=O)c1=O [Compound 86]
[1]; [23]
  Plant response rating, Bermudagrass: 85
[1]; [12]
  Bermudagrass plant response rating (0 to 100 scale): 90
[1]; [20]
  Plant response rating, Bermudagrass: 95
[1]; [24]
  Plant response rating, Bermudagrass: 95
[2]; [23]
  Plant response rating, Cocklebur: 85
[2]; [25]
  Cocklebur plant response rating (0 to 100 scale): 95
[2]; [20]
  Plant response rating, Cocklebur: 95
[2]; [24]
  Plant response rating, Cocklebur: 98
[3]; [23]
  Plant response rating, Goosegrass: 70
[3]; [25]
  Goosegrass plant response rating (0 to 100 scale): 75
[3]; [24]
  Plant response rating, Goosegrass: 95
[4]; [23]
  Plant response rating, Foxtail, Green: 70
[4]; [25]
  Foxtail, Green plant response rating (0 to 100 scale): 95
[4]; [24]
  Plant response rating, Foxtail, Green: 100
[5]; [23]
  Plant response rating, Lambsquarters: 100
[5]; [25]
  Lambsquarters plant response rating (0 to 100 scale): 100
[5]; [24]
  Plant response rating, Lambsquarters: 100
[6]; [23]
  Plant response rating, Crabgrass, Large: 85
[6]; [25]
  Crabgrass, Large plant response rating (0 to 100 scale): 98
[6]; [20]
  Plant response rating, Crabgrass, Large: 98
[6]; [24]
  Plant response rating, Crabgrass, Large: 98
[7]; [23]
  Plant response rating, Morningglory: 70
[7]; [25]
  Morningglory plant response rating (0 to 100 scale): 80
[7]; [24]
  Plant response rating, Morningglory: 100
[8]; [23]
  Plant response rating, Wheat: 5
[8]; [25]
  Wheat plant response rating (0 to 100 scale): 35
[8]; [24]
  Plant response rating, Wheat: 45
Wild oat (Avena fatua); [23]
  Plant response rating, Oat, Wild: 20
Wild oat (Avena fatua); [25]
  Oat, Wild plant response rating (0 to 100 scale): 50
Wild oat (Avena fatua); [24]
  Plant response rating, Oat, Wild: 80
[9]; [23]
  Plant response rating, Nutsedge, Yellow: 65
[9]; [25]
  Nutsedge, Yellow plant response rating (0 to 100 scale): 70
[9]; [24]
  Plant response rating, Nutsedge, Yellow: 85
[10]
  Plant response rating, Flood, Barnyardgrass: 60
[10]; [26]
  Plant response rating, Barnyardgrass: 40
[10]; [16]
  Plant response rating, Barnyardgrass: 50
[10]; 31 g ai/ha
  Barnyardgrass plant response rating: 30
[11]
  Plant response rating, Flood, Sedge, Umbrella: 85
[11]; [26]
  Plant response rating, Sedge, Umbrella: 30
[11]; [16]
  Plant response rating, Sedge, Umbrella: 70
[11]; 31 g ai/ha
  Sedge, Umbrella plant response rating: 20
